Data taken from the NIST ThermoML archive (doi:10.1021/acs.jced.5b01043).

Tests used:
[1] = refractive index (Na D-line) (dimensionless); wn = mass fraction of the nth substance listed; conditions: 100 kPa, Liquid, Standard Abbe refractometry
[2] = wn = mass fraction of the nth substance listed; conditions: 100 kPa, Liquid, Vibrating tube method

CCN(C=O)CC [N,N-diethylformamide] + O
298.15 K
Conditions | mass density, [2] [kg/m3] | refractive index, [1]
w1 = 0.009925 | 996.45 | 1.33379
w1 = 0.04 | 995.04 | 1.33758
w1 = 0.06998 | 993.7 | 1.34136
w1 = 0.09919 | 992.49 | 1.34512
w1 = 0.129 | 991.3 | 1.34898
w1 = 0.16 | 989.97 | 1.35302
w1 = 0.1897 | 988.8 | 1.35684

CCN(C=O)CC [N,N-diethylformamide] + [Cl-].[Cs+]
288.15 K, w2 = 0.0013
Conditions | mass density [kg/m3] | refractive index
[1] | – | 1.43686
[2] | 910.38 | –

CCN(C=O)CC [N,N-diethylformamide] + [Cl-].[K+]
Conditions | mass density, [2] [kg/m3] | refractive index, [1]
288.15 K, w2 = 0.0015 | 911.47 | 1.43618
298.15 K, w2 = 0.0009 | 903.51 | 1.43281
308.15 K, w2 = 0.0005 | 896.68 | 1.42872

CCN(C=O)CC [N,N-diethylformamide] + [Cl-].[Na+]
Conditions | mass density, [2] [kg/m3] | refractive index, [1]
288.15 K, w2 = 0.0013 | 912.57 | 1.43642
298.15 K, w2 = 0.0009 | 904.23 | 1.43203
308.15 K, w2 = 0.0005 | 896.38 | 1.42776

CCN(C=O)CC [N,N-diethylformamide] + [Cl-].[Rb+]
Conditions | mass density, [2] [kg/m3] | refractive index, [1]
288.15 K, w2 = 0.0016 | 910.95 | 1.43675
298.15 K, w2 = 0.0011 | 902.43 | 1.43253
308.15 K, w2 = 0.0008 | 894.54 | 1.42819

[Cl-].[Cs+] [cesium chloride] + O
288.15 K, w1 = 0.6406
Conditions | mass density [kg/m3] | refractive index
[1] | – | 1.41772
[2] | 1893.82 | –

[Cl-].[K+] [potassium chloride] + O
Conditions | mass density, [2] [kg/m3] | refractive index, [1]
288.15 K, w1 = 0.2483 | 1169.18 | 1.36809
298.15 K, w1 = 0.2668 | 1174.11 | 1.36838
308.15 K, w1 = 0.2768 | 1184.11 | 1.36932

[Cl-].[Rb+] [rubidium chloride] + O
Conditions | mass density, [2] [kg/m3] | refractive index, [1]
288.15 K, w1 = 0.4652 | 1482.6 | 1.38751
298.15 K, w1 = 0.4823 | 1495.24 | 1.38769
308.15 K, w1 = 0.5033 | 1520.16 | 1.38939

[Cl-].[Na+] [sodium chloride] + O
Conditions | mass density, [2] [kg/m3] | refractive index, [1]
288.15 K, w1 = 0.2631 | 1202.37 | 1.381
298.15 K, w1 = 0.265 | 1197.1 | 1.37938
308.15 K, w1 = 0.2666 | 1193.13 | 1.37784
